Source: ChEMBL document CHEMBL3098103, “High-throughput docking for the identification of new influenza A virus polymerase inhibitors targeting the PA-PB1 protein-protein interaction” (Bioorg Med Chem Lett, 2014)
pIC50: −log10 of the molar value.

Key:
[1] = Inhibition of Influenza A virus H5N1 C-terminal PA interaction to N-terminal PB1 (1 to 25) expressed in human 293T cells by ELISA; format: cell-based
[2] = Cytotoxicity against MDCK cells; format: cell-based, Canis lupus familiaris; conditions: dog

Compound | pIC50 [1] | CC50 [2]
CCOC(=O)c1ccc(NC(=O)CSc2nc(-c3ccccc3)cc(-c3ccc(OCc4ccccc4)c(OCC)c3)c2C#N)cc1 | 4.52 | 100 µM
Cc1ccc(-c2cc(-c3ccccc3)nc(S[C@H](C)C(=O)Nc3cccc(Cl)c3)c2C#N)cc1 | 3.90 | 100 µM
COc1ccc(-c2cc(-c3ccccc3)nc(SCC(=O)Nc3ccccc3)c2C#N)cc1OC | 3.90 | 100 µM
Cc1ccc(-c2cc(-c3ccccc3)nc(SCC(=O)Nc3cccc(Cl)c3)c2C#N)cc1 | 3.74 | 100 µM
Cc1ccc(-c2cc(-c3ccccc3)nc(S[C@@H](C)C(=O)Nc3ccc(C)c(C)c3)c2C#N)cc1 | 3.74 | 100 µM
Cc1ccc(-c2cc(-c3ccccc3)nc(SCC(=O)Nc3cccc(C)c3)c2C#N)cc1 | 4.10 | 100 µM
N#Cc1c(-c2cccc(Br)c2)cc(-c2ccccc2)nc1SCC(=O)Nc1ccc(Br)cc1 | 4.46 | 100 µM
